Read-outs that look alike come from different tables or passages of the source.
Columns and labels:
L-5563 lymphoma = experiment: Activity vs. L-5563 lymphoma (Table 6); conditions: once or twice daily for 9-10 days
Description: (§2) All compounds were administered once or twice daily for 9-10 days starting 24 hours after inoculation with the tumor.

Lewis Lung = experiment: Activity vs. Lewis Lung (Table 5); assay type: in vivo, mice; conditions: once or twice daily for 9-10 days
Description: as §2

CA-755 adenocarcinoma = experiment: Activity vs. CA-755 adenocarcinoma (Table 7); assay type: in vivo, mice; conditions: once or twice daily for 9-10 days
Description: as §2

L-1210 Leukemia [1] = assay type: in vivo, mice; conditions: once or twice daily for 9-10 days
Description: as §2

L-1210 Leukemia [2] = assay type: in vivo, mice
Description: In a series of studies against L-1210 leukemia, in addition to those studies set forth in Table 2 and 4, 3,4-dihydroxybenzohydroxamic acid gave the following increases in survival times at the dose levels specified. Drug was administered daily for nine days.
Similar data for 3,4,5-trihydroxybenzohydroxamic acid are as follows: […]

ribonucleotide reductase = molecular target: T1, ribonucleotide reductase (Rattus norvegicus, UniProt Q4KLN6); experiment: Inhibition of ribonucleotide reductase (conversion of CDP to dCDP), enzyme partially purified from Novikoff hepatoma; assay type: biochemical; conditions: for IC50: CDP to dCDP, 40 min at 30° C, pH 7.5, enzyme from Novikoff hepatoma, read-out: ID50 (inhibitory dose which inhibits ribonucleotide reductase by 50%); for Inhibitory Potency for ribonucleotide reductase: relative to hydroxyurea, given an arbitrary value of 1.0
T1 construct: partially purified from Novikoff hepatoma; from tissue; host or cells: Novikoff hepatoma (rat tumour), partially purified enzyme
T1 sequence (Q4KLN6 1-390): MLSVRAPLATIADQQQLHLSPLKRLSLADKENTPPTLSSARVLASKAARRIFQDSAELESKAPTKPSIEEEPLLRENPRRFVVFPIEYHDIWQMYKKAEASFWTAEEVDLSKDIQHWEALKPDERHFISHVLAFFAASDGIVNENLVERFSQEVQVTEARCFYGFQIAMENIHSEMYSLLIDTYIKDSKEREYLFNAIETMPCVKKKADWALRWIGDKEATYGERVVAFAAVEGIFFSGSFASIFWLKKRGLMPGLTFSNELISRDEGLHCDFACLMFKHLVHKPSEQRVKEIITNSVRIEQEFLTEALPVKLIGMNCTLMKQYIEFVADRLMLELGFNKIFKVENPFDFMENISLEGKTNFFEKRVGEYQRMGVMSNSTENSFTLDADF
Source text: (§1) Table 2 gives ribonucleotide reductase data for certain compounds of formula I. In the table, column 1 gives the substitution pattern in the benzene ring, column 2, the R^1 group, column 3, the ID50 (inhibitory dose in micromolar concentration which inhibits ribonucleotide reductase by 50%), column 4, the average percent (± standard error) increase in the life span (ILS) of 8 treated mice inoculated with L1210 leukemia compared with 8 control mice also inoculated with L1210. The daily dose level of the drug which was administered for 8 days is indicated in column 5. Table 3 gives the relative potency of the compounds represented by formula I above as inhibitors of ribonucleotide reductase compared to hydroxyurea whose potency was given an arbitrary value of 1.0. In table 3, column 1 gives the name of the compound and column 2 the relative inhibitory potency of each of the compounds of column 1.
In the above determination of ID50 's in Table 3, ribonucleotide reductase is partially purified from Novikoff hepatoma by a procedure similar to that set forth by Elford et al. J. Biol. Chem. 245, 5228 (1970). The activity of the enzyme was measured by a slightly modified assay procedure originally developed by Reichard et al. id, 236, 1150 […]. This procedure measures the conversion of CDP to dCDP. The assay mixture (0.34 ml.) contains 3 μCi of [^3 H] CDP (specific activity […]), 3.3 μmole ATP, 5.9 μmoles magnesium chloride, 8.8 μmoles Hepes buffer at pH=7.5, 15 μmoles dithiothreitol and enzyme protein between 0.4 and 1.3 mg. Incubation was provided for forty minutes at 30° C. Ion exchange chromatography employing Dowex 50 (H^+) resin is used to separate the product from the substrate. The inhibitors were dissolved in water and a mixture of water and up to 1 % ethanol or 2% dimethylsulfoxide, neither one of which inhibited the enzyme at these concentrations. Each inhibitor was tested at a minimum of three concentrations and the active compounds reassayed at least one additional time. ID50 's in μmoles were estimated from graphs summarizing results for each compound.

L1210 leukemia = L1210 leukemia in mice, increase in life span (Table 2); assay type: in vivo; conditions: Mus musculus, L1210, 192 h, read-out: ILS, average percent (± standard error) increase in life span; for ILS at 500 mg/kg: 500 mg/kg daily for 8 days; for ILS at 200 mg/kg: 200 mg/kg daily for 8 days
Source text: As stated above, the compounds represented by formula I above have the ability to inhibit ribonucleotide reductase, an enzyme involved in the reductive conversion of ribonucleotides to deoxyribonucleotides. This enzymatic reaction is a rate controlling step in the biosynthetic pathway leading to DNA and cell replication. In general, the ribonucleotide reductase level is closely correlated with cellular replication.
as §1

[3] = system: DNA synthesis in Ehrlich ascites tumor cells; conditions: cited from earlier work; for selectivity against DNA synthesis (in words): only after exposure of the cells for 1-2 hours; for selectivity against DNA synthesis (in words) / inhibition of / selectivity against DNA synthesis (in words): Gale and Hynes 1968; for inhibition of / selectivity against DNA synthesis (in words): in vitro
L-1210 Leukemia [4] = assay type: in vivo, mice; remark: listed apart in the source
Source text: The above data clearly show the enhanced anti-tumor activity of trihydroxybenzohydroxamic acid where the hydroxy groups are vicinal but no hydroxyl is ortho. Similar data are available for the vicinal dihydroxybenzohydroxamic acids with and without an ortho-hydroxy substituent in an L-1210 leukemic test in mice as follows: […]

L-1210 Leukemia [5] = experiment: Direct side-by-side comparison with L-1210 leukemia; assay type: in vivo, mice
Source text: In a direct side-by-side comparison with L-1210 leukemia, the following results were obtained.

[6] = Biochemical Pharmacology 1971; cited from earlier work
P388 Leukemia = experiment: Activity vs. P388 Leukemia (Table 8); assay type: in vivo, mice; conditions: once or twice daily for 9-10 days
Description: as §2

O=C(NO)c1ccc(O)c(O)c1O [2,3,4-trihydroxybenzohydroxamic acid]
toxic (in column % inhibition) (L-5563 lymphoma; 25-50 mg/kg): toxic
% tumor inhibition (Lewis Lung; 25-50 mg/kg): 13-14%
% inhibition (CA-755 adenocarcinoma; 25-50 mg/kg): 12-18%
% increase in survival time (L-1210 Leukemia [1]; 25-50 mg/kg): 17-21%
% increase in survival (L-1210 Leukemia [2]; 25 mg/kg daily for nine days): 10%
% increase in survival (L-1210 Leukemia [2]; 50 mg/kg daily for nine days): 8%
% increase in survival (L-1210 Leukemia [2]; 100 mg/kg daily for nine days): 16%
IC50 (ribonucleotide reductase): 3.5 µM
Inhibitory Potency for ribonucleotide reductase (ribonucleotide reductase): 140
ILS at 125 mg/kg (L1210 leukemia; 125 mg/kg daily for 8 days): 30 ± 7%

O=C(Oc1ccccc1)c1cc(O)c(O)c(O)c1 [phenyl 3,4,5-trihydroxybenzoate]
% inhibition (L-5563 lymphoma; 200 mg/kg): 19%
% tumor inhibition (Lewis Lung; 50 mg/kg): 2%
% tumor inhibition (Lewis Lung; 200 mg/kg): 14%
% inhibition (CA-755 adenocarcinoma; 100 mg/kg): 27%
% inhibition (CA-755 adenocarcinoma; 200 mg/kg): 11%
% increase in survival time (L-1210 Leukemia [1]; 200 mg/kg): 56%
Inhibitory Potency for ribonucleotide reductase (ribonucleotide reductase): 33

CC(C)c1cc(C(=O)NO)c(O)c(C(C)C)c1 [3,5-diisopropylsalicylhydroxamic acid]
inhibition of DNA synthesis, rank in words ([3]; Gale, Hynes and Smith 1970): most active compound

O=C(NO)c1ccc(O)cc1O [2,4-dihydroxybenzohydroxamic acid]
IC50 (ribonucleotide reductase): 250 µM
Inhibitory Potency for ribonucleotide reductase (ribonucleotide reductase): 2.0
ILS at 500 mg/kg (L1210 leukemia): 42 ± 7%

O=C(NO)c1cc(O)ccc1O [2,5-dihydroxybenzohydroxamic acid]
IC50 (ribonucleotide reductase): 200 µM
Inhibitory Potency for ribonucleotide reductase (ribonucleotide reductase): 2.5
ILS at 300 mg/kg (L1210 leukemia; 300 mg/kg daily for 8 days): 30 ± 14%

O=C(Cc1ccc(O)c(O)c1)NO [3,4-dihydroxyphenylacetohydroxamic acid]
% increase in survival time (L-1210 Leukemia [1]; 606 mg/kg): 57%

NC(=O)NO [hydroxyurea, reference compound]
% tumor inhibition (Lewis Lung; 71 mg/kg): 27%
% tumor inhibition (Lewis Lung; 400 mg/kg): 44%
% inhibition (CA-755 adenocarcinoma; 71 mg/kg): 27%
% inhibition (CA-755 adenocarcinoma; 200 mg/kg): 26%
% increase in survival time (L-1210 Leukemia [1]; 30 mg/kg): 27%
% increase in survival time (L-1210 Leukemia [1]; 40 mg/kg): 27%
% increase in survival time (L-1210 Leukemia [1]; 60 mg/kg): 92%
% increase in survival time (L-1210 Leukemia [1]; 71 mg/kg): 58%

Nc1cc(N)cc(C(=O)NO)c1 [3,5-Diaminobenzohydroxamic acid]
selectivity against DNA synthesis (in words) [3]: relative selectivity against DNA synthesis

NC(=O)c1ccc(O)c(O)c1 [3,4-dihydroxybenzamide]
IC50 (ribonucleotide reductase): 50 µM
Inhibitory Potency for ribonucleotide reductase (ribonucleotide reductase): 10
ILS at 1200 mg/kg (L1210 leukemia; 1200 mg/kg daily for 8 days): 35 ± 11%

NC(=O)c1ccccc1 [benzamide]
inhibition of / selectivity against DNA synthesis (in words) [3]: totally inactive

NC(=O)c1ccc(O)c(O)c1O [2,3,4-trihydroxybenzamide]
IC50 (ribonucleotide reductase): 5 µM
Inhibitory Potency for ribonucleotide reductase (ribonucleotide reductase): 100
ILS at 200 mg/kg (L1210 leukemia): 48 ± 7%

O=C(NO)c1cccc(O)c1O [2,3-dihydroxybenzohydroxamic acid]
% increase in survival time (L-1210 Leukemia [4]; 300 mg/kg): about 0%
% increase in survival time (L-1210 Leukemia [4]; 450 mg/kg): about 0%
% increase in survival time (L-1210 Leukemia [5]; 125 mg/kg): 0%
% increase in survival time (L-1210 Leukemia [5]; 250 mg/kg): 16%
antimitogenic activity (in words) [6]: most active compounds tested
IC50 (ribonucleotide reductase): 8 µM
Inhibitory Potency for ribonucleotide reductase (ribonucleotide reductase): 63
inhibition of / selectivity against DNA synthesis (in words) [3]: marked selectivity against DNA synthesis with a greater inhibition than that produced by salicylhydroxamic acid
ILS at 200 mg/kg (L1210 leukemia): 36 ± 11%

CNC(=O)c1cc(O)c(O)c(O)c1 [3,4,5 NHCH3]
IC50 (ribonucleotide reductase): 25 µM
ILS at 500 mg/kg (L1210 leukemia): 60 ± 29%

Nc1ccc(C(=O)NO)cc1 [4-aminobenzohydroxamic acid]
antimitogenic activity (in words) [6]: inactive
selectivity against DNA synthesis (in words) [3]: relative selectivity against DNA synthesis

O=C(NO)c1cc(O)cc(O)c1 [3,5-dihydroxybenzohydroxamic acid]
IC50 (ribonucleotide reductase): 400 µM
Inhibitory Potency for ribonucleotide reductase (ribonucleotide reductase): 1.2
ILS at 1000 mg/kg (L1210 leukemia; 1000 mg/kg daily for 8 days): 52 ± 22%

Nc1ccc(C(=O)NO)c(O)c1 [2-hydroxy-4-aminobenzoyl compound]
antimitogenic activity (in words) [6]: inactive

NC(=O)c1cc(O)c(O)c(O)c1 [3,4,5-trihydroxybenzamide]
toxic (in column % inhibition) (L-5563 lymphoma; 200 mg/kg): toxic
% tumor inhibition (Lewis Lung; 200 mg/kg): 21%
% inhibition (CA-755 adenocarcinoma; 200 mg/kg): 38%
% increase in survival time (L-1210 Leukemia [1]; 150 mg/kg): 50%
% increase in survival time (L-1210 Leukemia [1]; 175 mg/kg): 55%
% increase in survival time (L-1210 Leukemia [1]; 225 mg/kg): 10%
% Prolongation (P388 Leukemia; 175 mg/kg): 43%
% Prolongation (P388 Leukemia; 200 mg/kg): 40%
% Prolongation (P388 Leukemia; 225 mg/kg): 55%
IC50 (ribonucleotide reductase): 10 µM
Inhibitory Potency for ribonucleotide reductase (ribonucleotide reductase): 50
ILS at 250 mg/kg (L1210 leukemia; 250 mg/kg daily for 8 days): 42 ± 5%

O=C(NO)c1c(O)cccc1O [2,6-dihydroxybenzohydroxamic acid]
IC50 (ribonucleotide reductase): 100 µM
Inhibitory Potency for ribonucleotide reductase (ribonucleotide reductase): 5.0
ILS at 88 mg/kg (L1210 leukemia; 88 mg/kg daily for 8 days): 23 ± 11%

From US4448730A, “Hydroxybenzohydroxamic acids, benzamides and esters and related compounds as ribonucleotide reductase inhibitors” (priority 1982, dated 1984)
